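Exposure lasted 48 hours, with cells grown in 96-well plates and compounds tested at five concentrations. Here, GI50 denotes the concentration required for 50% inhibition of growth.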 Active and inactive are the calls of the source. No stated cut-off is given here; in the data, active = GI50 up to about 1.1 µM and inactive = higher.
Experiments:
Test in all cases: DTP human tumour cell line panel, 48 h
NCI-H522 = system: NCI-H522
MOLT-4 = system: MOLT-4
SR = system: SR
OVCAR-8 = system: OVCAR-8
ACHN = system: ACHN
CCRF-CEM = system: CCRF-CEM
HCT-116 = system: HCT-116
Hs-578T = system: Hs-578T
SN12C = system: SN12C
Malme-3M = system: Malme-3M
NCI-H460 = system: NCI-H460
MDA-MB-231 = system: MDA-MB-231
HT-29 = system: HT-29
786-0 = system: 786-0
MDA-N = system: MDA-N
SK-MEL-2 = system: SK-MEL-2
BT-549 = system: BT-549
UACC-257 = system: UACC-257
SW-620 = system: SW-620
TK-10 = system: TK-10
SK-MEL-5 = system: SK-MEL-5
NCI-H226 = system: NCI-H226
A549 = system: A549
COLO 205 = system: COLO 205
M14 = system: M14
OVCAR-5 = system: OVCAR-5
K562 = system: K562
DU-145 = system: DU-145
SK-OV-3 = system: SK-OV-3
SNB-75 = system: SNB-75
EKVX = system: EKVX
UACC-62 = system: UACC-62
T47D = system: T47D
A498 = system: A498
NCI/ADR-RES = system: NCI/ADR-RES
CAKI-1 = system: CAKI-1
KM12 = system: KM12
RXF 393 = system: RXF 393
UO-31 = system: UO-31
HCT-15 = system: HCT-15
HOP-92 = system: HOP-92
MCF7 = system: MCF7
U-251 = system: U-251
SF-295 = system: SF-295
LOX IMVI = system: LOX IMVI
MDA-MB-435 = system: MDA-MB-435
OVCAR-3 = system: OVCAR-3
IGROV-1 = system: IGROV-1
SF-268 = system: SF-268
SK-MEL-28 = system: SK-MEL-28
RPMI-8226 = system: RPMI-8226
HCC 2998 = system: HCC 2998
SNB-19 = system: SNB-19
HOP-62 = system: HOP-62
OVCAR-4 = system: OVCAR-4
PC-3 = system: PC-3
NCI-H23 = system: NCI-H23
SF-539 = system: SF-539

CC(=O)OC(C#N)CC(C)(C)/[N+]([O-])=[N+](\[O-])C(C)(C)CC(C#N)OC(C)=O (stereo not drawn)
GI50 (NCI-H522): 8.47 µM (inactive)
GI50 (MOLT-4): 3.24 µM (inactive)
GI50 (SR): 2.41 µM (inactive)
GI50 (OVCAR-8): 16.1 µM (inactive)
GI50 (ACHN): 12.1 µM (inactive)
GI50 (CCRF-CEM): 1.73 µM (inactive)
GI50 (HCT-116): 6.7 µM (inactive)
GI50 (Hs-578T): 17.3 µM (inactive)
GI50 (SN12C): 12.9 µM (inactive)
GI50 (Malme-3M): 18.5 µM (inactive)
GI50 (NCI-H460): 18 µM (inactive)
GI50 (MDA-MB-231): 14.7 µM (inactive)
GI50 (HT-29): 18.4 µM (inactive)
GI50 (786-0): 10.6 µM (inactive)
GI50 (MDA-N): 14.3 µM (inactive)
GI50 (SK-MEL-2): 24.3 µM (inactive)
GI50 (BT-549): 14.8 µM (inactive)
GI50 (UACC-257): 16.9 µM (inactive)
GI50 (SW-620): 5.47 µM (inactive)
GI50 (TK-10): 15.9 µM (inactive)
GI50 (SK-MEL-5): 16.1 µM (inactive)
GI50 (NCI-H226): 20.7 µM (inactive)
GI50 (A549): 30.1 µM (inactive)
GI50 (COLO 205): 15.7 µM (inactive)
GI50 (M14): 14.4 µM (inactive)
GI50 (OVCAR-5): 23 µM (inactive)
GI50 (K562): 3.77 µM (inactive)
GI50 (DU-145): 18 µM (inactive)
GI50 (SK-OV-3): > 100 µM (inactive)
GI50 (SNB-75): 15.1 µM (inactive)
GI50 (EKVX): 16.7 µM (inactive)
GI50 (UACC-62): 16.7 µM (inactive)
GI50 (T47D): 15.5 µM (inactive)
GI50 (A498): 44.6 µM (inactive)
GI50 (NCI/ADR-RES): 22.4 µM (inactive)
GI50 (CAKI-1): 15 µM (inactive)
GI50 (KM12): 14.5 µM (inactive)
GI50 (RXF 393): 12.8 µM (inactive)
GI50 (UO-31): 19.5 µM (inactive)
GI50 (HCT-15): 10.6 µM
GI50 (HOP-92): 12.3 µM (inactive)
GI50 (MCF7): 8.83 µM (inactive)
GI50 (U-251): 15.8 µM (inactive)
GI50 (SF-295): 38.3 µM (inactive)
GI50 (LOX IMVI): 11.1 µM (inactive)
GI50 (MDA-MB-435): 16.1 µM (inactive)
GI50 (OVCAR-3): 16.6 µM (inactive)
GI50 (IGROV-1): 10.8 µM (inactive)
GI50 (SF-268): 10.8 µM (inactive)
GI50 (SK-MEL-28): 26 µM (inactive)
GI50 (RPMI-8226): 15.8 µM (inactive)
GI50 (HCC 2998): 16.1 µM (inactive)
GI50 (SNB-19): 23.1 µM (inactive)
GI50 (HOP-62): 17.8 µM (inactive)
GI50 (OVCAR-4): 17.6 µM (inactive)
GI50 (PC-3): 15.3 µM (inactive)
GI50 (NCI-H23): 17 µM (inactive)

COc1ccc2c(c1OC)C(=O)O[C@@H]2[C@H]1c2c(cc3c(c2OC)OCO3)CCN1C [NOSCAPINE]
GI50 (NCI-H522): 30.3 µM (inactive)
GI50 (MOLT-4): 23.5 µM (inactive)
GI50 (SR): 38.8 µM (inactive)
GI50 (OVCAR-8): 63.5 µM (inactive)
GI50 (ACHN): 62.5 µM (inactive)
GI50 (CCRF-CEM): 12.9 µM (inactive)
GI50 (HCT-116): 50.5 µM (inactive)
GI50 (Hs-578T): 21.1 µM (inactive)
GI50 (SN12C): > 100 µM (inactive)
GI50 (Malme-3M): 33.5 µM (inactive)
GI50 (NCI-H460): 39.9 µM (inactive)
GI50 (MDA-MB-231): 76.6 µM (inactive)
GI50 (HT-29): 40 µM (inactive)
GI50 (786-0): 49.9 µM (inactive)
GI50 (MDA-N): 23.1 µM (inactive)
GI50 (SK-MEL-2): 34.1 µM (inactive)
GI50 (BT-549): 45.7 µM (inactive)
GI50 (UACC-257): 55.1 µM (inactive)
GI50 (SW-620): 27 µM (inactive)
GI50 (SK-MEL-5): 48.3 µM (inactive)
GI50 (NCI-H226): > 100 µM (inactive)
GI50 (A549): 72.9 µM (inactive)
GI50 (COLO 205): 63.5 µM (inactive)
GI50 (M14): 39.2 µM (inactive)
GI50 (OVCAR-5): > 100 µM (inactive)
GI50 (K562): 33 µM (inactive)
GI50 (DU-145): > 100 µM (inactive)
GI50 (SK-OV-3): 73.1 µM (inactive)
GI50 (SNB-75): 4.86 µM (inactive)
GI50 (UACC-62): 56.9 µM (inactive)
GI50 (T47D): > 100 µM (inactive)
GI50 (A498): > 100 µM (inactive)
GI50 (NCI/ADR-RES): 43.8 µM (inactive)
GI50 (SF-539): 30.8 µM (inactive)
GI50 (CAKI-1): 63 µM (inactive)
GI50 (KM12): 45.8 µM (inactive)
GI50 (RXF 393): > 100 µM (inactive)
GI50 (UO-31): 69 µM (inactive)
GI50 (HCT-15): 43.4 µM
GI50 (HOP-92): > 100 µM (inactive)
GI50 (MCF7): 42.3 µM (inactive)
GI50 (U-251): 41 µM (inactive)
GI50 (SF-295): 30.3 µM (inactive)
GI50 (LOX IMVI): 37.2 µM (inactive)
GI50 (MDA-MB-435): 4.86 µM (inactive)
GI50 (OVCAR-3): 16.5 µM (inactive)
GI50 (IGROV-1): 62.7 µM (inactive)
GI50 (SF-268): 71.8 µM (inactive)
GI50 (SK-MEL-28): 42.1 µM (inactive)
GI50 (RPMI-8226): 23.3 µM (inactive)
GI50 (HCC 2998): 79.4 µM (inactive)
GI50 (SNB-19): 80.5 µM (inactive)
GI50 (HOP-62): 71.4 µM (inactive)
GI50 (OVCAR-4): > 100 µM (inactive)
GI50 (PC-3): 50.1 µM (inactive)
GI50 (NCI-H23): 79.1 µM (inactive)
